Laboratory results: patent US11865119B2, “Methods of treating agitation and other dementia-associated behavioral symptoms” (Woolsey Pharmaceuticals, Inc., priority 2021, dated 2024)

Tests used:
[1] = tested on: agitation in patients with Alzheimer's Dementia (AD); experiment: Clinical trial of oral fasudil in reducing agitation in patients with Alzheimer's Dementia (CMAI, NPI-Q); format: in vivo, human; details: cutoff moved from 0 to 35 in 5-point increments; FIG. 3
Description: All the patients were treated for 6 weeks with 90 mg per day (30 mg TID) and a subset of patients was treated an additional 6 weeks with 180 mg per day (60 mg TID). […] A variety of assessments were conducted at baseline and at the end of treatment, including the NPI-Q and the CMAI.
Two baseline thresholds were set, and two analyses were done based on the two groupings that resulted. One threshold was based on the agitation/aggression domain of the NPI-Q and the other based on the CMAI score.
The first selection was based on NPI-Q score of ≥4.
The second selection required a baseline CMAI score of ≥20 and this yielded a 13-patient subgroup, having a mean baseline CMAI score of 34.4. […] All the patients selected using the NPI-Q agitation/aggression domain score of ≥4 were also included in this subgroup.
The analysis looked at the CMAI score prior to treatment and compared it to the last day of treatment (6 weeks for the 10 patients on the low dose and 12 weeks for the 3 patients on the high dose).
Finally, to examine the effects of changing the CMAI-C threshold, 5-point increments were used to move the cutoff from 0 to 35. […] It was concluded that setting the CMAI-C threshold of at least 5 provided a meaningful result over the population, even though higher thresholds we more powerful at detecting change.

mice = details: six-month old mice; 10 mg/kg oral gavage once a day for 30 days; assessed over final 3 days; vs water; cited from earlier work

SMILES: O=S(=O)(c1cccc2cnccc12)N1CCCNCC1 [fasudil]
- effect of changing the baseline CMAI-C threshold on magnitude of observed effect [1]: As the threshold increased, so did the magnitude of the observed effect
- amount of time spent in the open arms of the maze (mice): significantly reduced
